This is an account of results in US4760087A, “Phenol derivatives and pharmaceutical compositions containing these compounds” (Gruenenthal GmbH, priority 1985, dated 1988).

Assay [1] relates to Sprague-Dawley-rats. Description: Inhibition of kaolin-induced paw oedema, test compound injected in each paw simultaneously with kaolin. The assay is classed as in vivo. The conditions noted are these: 1 mg injected in each paw simultaneously with kaolin. The method, then:
(§1) By subplantar injection of 0.1 ml of a kaolin suspension (100 mg/ml) into Sprague-Dawley-rats, an oedema is induced and the paw volume is measured plethysometrically every hour. Three hours after the induction of the oedema a suspension of the respective test compound in a 1% carboxymethylcellulose sodium solution (5 ml/kg body weight of the animal) is administered intraperitoneally. In table 2 the percentage of alteration in the paw volume due to the inhibition of the oedema by the test compound in relation to the volume determined immediately before the test compound was applied (i.e. the initial value) is shown. (FIGS. of more than 100% indicate a decrease in the volume of the oedema below the initial value):
In other experiments the test compound was administered simultaneously with the application of the kaolin suspension by injection of 1 mg of the test compound dissolved in 0.1 ml of a 1% carboxymethylcellulose sodium solution in each paw. The following maximum values of inhibition of the oedema or the formation of the oedema, respectively, were determined: […]

In assay [2] the target is T1, 5-lipoxygenase (Rattus norvegicus, UniProt P12527).
T1 construct: endogenous in cells; host or cells: rat basophilic leukemia cells
T1 sequence (P12527 1-673): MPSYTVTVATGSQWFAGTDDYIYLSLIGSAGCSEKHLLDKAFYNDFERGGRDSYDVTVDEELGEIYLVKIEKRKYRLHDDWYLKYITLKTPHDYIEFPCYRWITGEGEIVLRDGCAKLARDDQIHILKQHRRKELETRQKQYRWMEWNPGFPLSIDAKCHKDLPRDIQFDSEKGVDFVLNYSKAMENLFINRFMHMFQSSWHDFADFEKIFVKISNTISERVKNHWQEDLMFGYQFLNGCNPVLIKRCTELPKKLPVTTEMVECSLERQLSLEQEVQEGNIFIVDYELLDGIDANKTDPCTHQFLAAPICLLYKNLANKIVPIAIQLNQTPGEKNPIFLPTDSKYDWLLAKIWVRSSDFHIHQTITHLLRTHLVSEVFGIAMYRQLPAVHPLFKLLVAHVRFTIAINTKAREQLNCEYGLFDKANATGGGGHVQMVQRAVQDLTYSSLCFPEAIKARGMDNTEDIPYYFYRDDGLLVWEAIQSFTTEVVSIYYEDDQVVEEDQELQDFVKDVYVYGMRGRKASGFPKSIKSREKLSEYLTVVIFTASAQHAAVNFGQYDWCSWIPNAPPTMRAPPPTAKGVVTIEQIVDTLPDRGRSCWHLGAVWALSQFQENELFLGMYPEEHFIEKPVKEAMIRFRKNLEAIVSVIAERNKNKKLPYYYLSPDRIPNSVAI
The assay is described as follows: Inhibition of 5-lipoxygenase in rat basophilic leukemia cells (5-HETE and LTB4 formation from [14C]-arachidonic acid). The assay is classed as cell-based. To be noted: indomethacin 10 μM, A 23187, room temperature, 5 minutes, read-out: IC50 for inhibition of 5-lipoxygenase (I). How it is done:
To determine the inhibition of 5-lipoxygenase rat basophilic leukemia cells were cultured in vitro, and after a cell concentration of about 10^6 cells/ml had been obtained, the cells were harvested by centrifugation at 400 g. The precipitate was suspended in 50 mM potassium phosphate buffer of pH 7.4 at 1.5×10^7 cells/ml.
To 1 ml each of this suspension there was added indomethacin (10 μM) and calcium chloride (2 mM) and then the mixture was incubated in presence or absence of a test compound with [^14 C]-arachidonic acid and the calcium ionophore A 23 187 [Chaney et al., J. Am. Chem. Soc. 96: 1932-3 (1974)] at room temperature for 5 minutes. The mixture was acidified to pH 5 and extracted with ethyl acetate to isolate the metabolites of arachidonic acid formed by the enzymatic action of 5-lipoxygenase. These were separated by thin layer chromatography using a solvent mixture known to be suitable for leukotriene analysis [c.f. Jakschik et al., Biochem. Biophys. Res. Commun. 102, 624 (1984)]. The distribution of the radioactivity among the different metabolites was measured with a Thin Layer Scanner (TLC linear analyzer). By bringing into relationship the percentages of the amount of 5-hydroxyeicosatetraenoic acid (5-HETE) and leukotriene B4 (LTB4) formed under the action of 5-lipoxygenase to the amount or the concentration, respectively, of the total radioactivity used and of the test compound of formula I the "IC50 -value I" (i.e. the concentration of the test compound which causes an 50%-inhibition of the 5-lipoxygenase) is determined.

Assay [3] has as its target T2, cyclooxygenase (Ovis aries, UniProt P05979).
T2 construct: suspension of sheep seminal vesicle microsomes; from tissue; host or cells: sheep seminal vesicle microsomes
T2 sequence (P05979 25-600): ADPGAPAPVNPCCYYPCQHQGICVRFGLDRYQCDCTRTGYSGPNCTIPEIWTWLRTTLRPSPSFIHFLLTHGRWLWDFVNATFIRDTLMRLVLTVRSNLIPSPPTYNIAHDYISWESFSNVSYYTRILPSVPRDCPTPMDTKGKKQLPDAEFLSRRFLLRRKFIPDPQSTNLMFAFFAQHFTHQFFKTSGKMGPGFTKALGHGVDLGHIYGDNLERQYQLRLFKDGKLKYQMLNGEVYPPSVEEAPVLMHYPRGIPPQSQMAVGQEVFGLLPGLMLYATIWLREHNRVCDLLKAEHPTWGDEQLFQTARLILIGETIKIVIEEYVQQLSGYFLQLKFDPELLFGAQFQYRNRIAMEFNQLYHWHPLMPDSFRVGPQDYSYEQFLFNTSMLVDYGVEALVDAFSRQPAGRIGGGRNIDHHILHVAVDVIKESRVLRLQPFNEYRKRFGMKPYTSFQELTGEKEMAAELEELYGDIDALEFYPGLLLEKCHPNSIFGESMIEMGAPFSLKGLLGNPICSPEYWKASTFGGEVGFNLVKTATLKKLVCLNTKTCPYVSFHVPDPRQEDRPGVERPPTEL
Description: Inhibition of cyclooxygenase in sheep seminal vesicle microsomes. The assay is classed as biochemical. To be noted: for Quotient IC50 II/IC50 I: cyclooxygenase IC50 (II) / 5-lipoxygenase IC50 (I); for IC50: sheep seminal vesicle microsomes, pH 7.5, 10 minutes, room temperature, read-out: IC50 for inhibition of cyclooxygenase (II). The method, then: The effect of the test compounds on the activity of cyclooxygenase was tested usinfg a suspension of sheep seminal vesicle microsomes in 50 mM potassium phosphate buffer of pH 7.5 which was incubated for 10 minutes at room temperature with the test compound and [^14 C]-arachidonic acid. After acidification with glacial acetic acid the mixture was extracted with ethyl acetate and the residue obtained after evaporation of the extract separated by thin layer chromatography on plates precoated with silica gel using the solvent system ether/hexane/glacial acetic acid (50:50:1).

Assay [4] concerns Sprague-Dawley-rats. Description: Inhibition of kaolin-induced paw oedema, test compound given intraperitoneally three hours after induction. The assay is classed as in vivo. To be noted: for % Inhibition (Maximum) of oedema: 3 h after kaolin, more than 100% = decrease below initial value. The method, then: as §1, with “value): […]” for “value):”

In the case of `COc1cc(C#CCCCCCCC#CCO)ccc1O` [Example 5, 11-Hydroxy-1-(4'-hydroxy-3'-methoxyphenyl)-undeca-1,9-diyne], in assay [1], the “% Inhibition (Maximum) of oedema” value worked out at 61% and the “Time after administration of the test compound (of maximum inhibition)” value (“Time … (of maximum inhibition)” below) came out at 3 h.
In the case of `OCC#CCCCCCCC#Cc1ccc(O)c(O)c1` [Example 7, 1-(3',4'-Dihydroxyphenyl)-11-hydroxy-undeca-1,9-diyne], the values for the IC50 in assay [2] and in assay [3] were 150 nM and 38000 nM, respectively. Moreover, the “Quotient IC50 II/IC50 I” value in assay [3] worked out at 253.3. For the same compound, the “% Inhibition (Maximum) of oedema” value in assay [1] was 36%; in assay [4] (46.4 mg/kg intraperitoneally), 65%; in assay [4] (100.0 mg/kg intraperitoneally), 164%. In addition, the “Time … (of maximum inhibition)” value in assay [1] stood at 2 h; in assay [4] (46.4 mg/kg intraperitoneally), 1 h; in assay [4] (100.0 mg/kg intraperitoneally), 1 h.
For the compound `OC/C=C\CCCCCC/C=C\c1ccc(O)c(O)c1` [Example 9, 1-(3',4'-Dihydroxyphenyl)-11-hydroxy-undeca-1Z,9Z-diene], the concentration for half-maximal inhibition (IC50) turned out to be 310 nM in assay [2] and 28000 nM in assay [3]. The “Quotient IC50 II/IC50 I” value in assay [3] was found to be 90.3.
Regarding `CC(C)(O)C#CCCCCCCC#Cc1ccc(O)c(O)c1` [Example 13, 1-(3',4'-Dihydroxyphenyl)-11-hydroxy-11-methyl-dodeca-1,9-diyne], the concentration for half-maximal inhibition (IC50) in assay [2] is 350 nM. In addition, in assay [3], the “Quotient IC50 II/IC50 I” value is recorded as 88.6 and the IC50 was 31000 nM.
On to `CCCCCC(O)C#CCCCCCCC#Cc1ccc(O)c(O)c1` (stereo not shown) [Example 14, 1-(3',4'-Dihydroxyphenyl)-11-hydroxy-hexadeca-1,9-diyne], for which the IC50 in assay [2] amounted to 210 nM; in assay [3], 25000 nM. Further, in assay [3], the “Quotient IC50 II/IC50 I” value stood at 119.1. Moreover, the “% Inhibition (Maximum) of oedema” value in assay [1] is recorded as 46%; in assay [4] (46.4 mg/kg intraperitoneally) it was 68%; in assay [4] (100.0 mg/kg intraperitoneally) it was 127%. Moreover, the “Time … (of maximum inhibition)” value in assay [1] was 2 h; in assay [4] (46.4 mg/kg intraperitoneally) it was 1 h; in assay [4] (100.0 mg/kg intraperitoneally), 2 h.
Turning to `Oc1ccc(C#CCCCCCCC#CC(O)c2ccccc2)cc1O` (stereo not shown) [Example 15, 1-(3',4'-Dihydroxyphenyl)-11-hydroxy-11-phenyl-undeca-1,9-diyne], the IC50 in assay [2] was 320 nM. Also, in assay [3], the “Quotient IC50 II/IC50 I” value is greater than 320.0 and the half-maximal inhibitory concentration (IC50) is greater than 100000 nM. Moreover, in assay [1], the “% Inhibition (Maximum) of oedema” value was found to be 64% and the “Time … (of maximum inhibition)” value came out at 5 h. In addition, in assay [4] (100.0 mg/kg intraperitoneally), the “Time … (of maximum inhibition)” value came to 2 h and the “% Inhibition (Maximum) of oedema” value is listed as 73%.
As to `Oc1ccc(C#CCCCCCCC#CC(O)C2CCCCC2)cc1O` (stereo not shown) [Example 16, 11-Cyclohexyl-1-(3',4'-dihydroxyphenyl)-11-hydroxy-undeca-1,9-diyne], the IC50 in assay [2] turned out to be 280 nM. In addition, in assay [3], the “Quotient IC50 II/IC50 I” value was found to be 132.1 and the IC50 worked out at 37000 nM. Moreover, in assay [1], the “% Inhibition (Maximum) of oedema” value was 45% and the “Time … (of maximum inhibition)” value is 7 h. Also, in assay [4] (100.0 mg/kg intraperitoneally), the “Time … (of maximum inhibition)” value worked out at 1 h and the “% Inhibition (Maximum) of oedema” value is given as 54%.
Turning to `COc1cc(C#CCCCCCCC#CCO)cc(OC)c1O` [Example 18, 1-(3',5'-Dimethoxy-4'-hydroxyphenyl)-11-hydroxy-undeca-1,9-diyne], the IC50 in assay [2] was 100 nM. For the same compound, in assay [3], the “Quotient IC50 II/IC50 I” value turned out to be 380.0 and the IC50 came to 38000 nM.
For `Oc1ccc(C#CCCCCCC/C=C/C(O)C2CCCCC2)cc1O` (stereo not shown) [Example 22c, 11-Cyclohexyl-1-(3',4'-dihydroxphenyl)-11-hydroxy-undec-9E-en-1-yne] the same measures were 2900 nM, 44.8 and 130000 nM.
As to `Oc1ccc(/C=C\CCCCCC/C=C/C(O)C2CCCCC2)cc1O` (stereo not shown) [Example 22d, 11-Cyclohexyl-1-(3',4'-dihydroxyphenyl)-11-hydroxy-undeca-1Z,9E-diene], the IC50 in assay [2] came to 2800 nM. In assay [3], the “Quotient IC50 II/IC50 I” value is on record as 64.3 and the concentration for half-maximal inhibition (IC50) was 180000 nM.
